Patent publication US9328059B2, “Pharmaceutical composition for preventing or treating autophagy-related diseases, angiogenic diseases or melanin-related diseases” (INDUSTRY-ACADEMIC COOPERATION FOUNDATION, YONSEI UNIVERSITY, priority 2010, dated 2016)

Columns and labels:
[1] = test system: HeLa cells; experiment: LC3 immunoblotting (LC3-I to LC3-II conversion) in HeLa; type: cell-based, human; details: for effect of autophagy inhibitor on indatraline-induced conversion of LC3-I to LC3-II: inhibitor pre-treated 1 hr
Procedure: (§1) Soluble proteins were harvested from indatraline-treated HeLa cells by using SDS buffer (50 mM Tris HCl, pH 6.8, 10% glycerol, 2% SDS, 10 mM dithiothreitol, and 0.005% bromophenol blue). Equal volumes of proteins were separated by 12.5% SDS-PAGE and transferred to PVDF membranes (Millipore). Blots were then blocked and immunolabeled overnight at 4° C. using anti-LC3 antibody (MBL, Nagoya, Japan). Immunolabeling was visualized with enhanced chemiluminescence (ECL) kit (Amersham Life Science, Inc., Buckinghamshire, UK) according to the manufacturer's protocol. Tubulin was used as an internal control and was detected using anti-tubulin antibody (Upstate Biotechnology).
LC3 conversion was finally verified by immunoblotting. After indatraline treatment for 24 hrs, the conversion of LC3-I to LC3-II in cells was tested (FIG. 2A). Inductions of autophagy in both of HUVEC and HeLa cells were tested in concentration starting from 5 μM. In order to investigate signal pathway related to indatraline, well-known autophagy inhibitors 3-MA (10 mM), Bafilomycin A (100 nM), PD98059 (10 μM) and Wortmannin (100 nM) was treated with indatraline. The inhibitors were pre-treated for 1 hr before indatraline and treated with 5 μM or 10 μM of indatraline. Where indatraline was treated with 5 μM of concentration, the conversion of LC3-I to LC3-II was inhibited in Bafilomycin A-treated sample and Wortmannin-treated sample (FIG. 2B). However, where indatraline was treated with 10 μM of concentration, the conversion of LC3-I to LC3-II was not inhibited in inhibitor-treated samples, except for Bafilomycin A-treated sample.

[2] = test system: skin cancer cell line B16-F10; experiment: LC3 conversion in B16-F10; type: cell-based; details: B16-F10, 5 μM and 10 μM
[3] = test system: HUVEC; experiment: VEGF-induced capillary formation assay; type: cell-based; details: VEGF 50 ng/ml
Procedure: Matrigel (10 mg/mL) (BD, USA) was coated to 48-well plates and polymerized at 37° C. HUVEC (6×10^4 cells) was inoculated on the surface of matrigel in 48-well plates. Under the presence of VEGF (50 ng/ml), the compound was added for 4 hrs at 37° C. Cell morphological changes and a capillary structure formed were observed microscope (IX71, Olympus), and the images were obtained using DP70 camera (Olympus) at 100× magnification.

[4] = test system: HUVEC; experiment: Cell proliferation assay (MTT) in HUVEC; type: cell-based; details: Homo sapiens, 72 h, 3 days
Procedure: (§2) Cell proliferation was measured using a MTT [3-(4,5-dimethylthiazol-2-yl)-2,5-diphenyltetrazolium bromide] colorimetric assay. HeLa cells and HUVEC (Lonza, USA) were seeded at a density of 3×10^3 cells/well in 96-well plates and incubated for 24 hrs. Cells were treated with various concentration of indatraline. After 3 days of treatment, 2 mg/mL MTT was added to each well and incubated for 4 hrs. MTT formazoan in each well was dissolved in 150 μL of DMSO, and absorbance at 595 nm was measured in a microplate reader (Bio-Tek Instrument Inc., Winooski, Vt.). Relative cell growth was measured by calculating the ratio between signal of indatraline-treated wells and control wells.

[5] = test system: COS7 cells stably expressing EGFP-LC3; experiment: Autophagy detection in stable cell line expressing EGFP-LC3; type: cell-based, African green monkey; details: COS7 EGFP-LC3, 24 hrs
Procedure: HeLa (human epithelial cervix adenocarcinoma) cells and COS-7 (African green monkey kidney cells) cells (Korean Cell Line Bank) were grown and maintained in DMEM containing 10% FBS (fetal bovine serum). A stable COS7 cell line expressing EGFP-LC3 was established by transfecting COS7 cells with pEGFP-LC3 using Lipofectamine 2000 according to the manufacturer's protocol (Invitrogen). Stable clones were selected in complete medium containing 750 μg/mL of G418. Cells were cultured at 37° C. in an atmosphere of 5% CO2 in air, pH 7.4. DMEM and FBS were obtained from Gibco Laboratories (Grand Island, N.Y.). Plasmids encoding EGFP-LC3 was kindly provided by Tamotsu Yoshimori (National Institute for Basic Biology, Japan).
In order to measure direct elements of autophagy, indatraline-induced autophagy was further verified in stable COST cell line expressing EGFP-LC3. Where autophagy was induced, the cytosolic form of LC3 is converted into the membrane-bound form. By the recruitment of Atg12-Atg5 complex, the cytosolic form of LC3 is converted into the membrane-bound form to mature the autophagosome. After indatraline treatment for 24 hrs, EGFP-LC3 positive small vacuoles were examined in the cytosol.

[6] = test system: B16-F10 cells; experiment: Measurement of amounts of melanin generated in B16-F10; details: B16-F10, 5 μM, vs control group
Procedure: (§4) In order to verify whether indatraline induces autophagy and is involved in melanogenesis, skin cancer cell line B16-F10 and normal skin cell line melan-a were treated with indatraline to determine autophagy generation. The amount of melanin generated in each cell line was measured at 5 μM concentration in which autophagy strongly occurs. For measurement on amounts of melanin, cells were treated with indatraline for 24, 48 and 72 hrs, and collected with KOH every day to measure melanin pigment absorbance at 410 nm. At the same time, cell proliferation was measured using MTT.
(§5) The amount of melanin generated in each cell line was measured at 5 μM of concentration which autophagy surely occurs. […] At the same time, cell growth was measured.

[7] = test system: melan-a cells; experiment: Cell growth (MTT) in melan-a; details: 5 μM, vs control group
Procedure: as §4, §5

[8] = test system: HeLa cells; experiment: Autophagy detection by Lysotracker fluorescence, quantified by HCS
Description: (§6) Each sample was washed with PBS three times and visualized by fluorescence microscopy. […] Hoechst 33258 and LysoTracker were purchased from Molecular Probes (Eugene, Oreg.), and MDC was purchased from BioChemika (Sigma, Switzerland).

[9] = test system: HUVEC cell; experiment: Cytotoxicity during autophagy screening in HUVEC; type: cell-based; details: 5 μM, 24 hrs
Procedure: (§3) The present study is newly reported that indatraline induces autophagy. Although the relationship between neurotransmitter inhibitor and autophagy has been studying, specific mechanisms for each neurotransmitter inhibitor have not yet been unknown. Indatraline-induced autophagy was verified by fluorescence screening and LC3 conversion immunoblotting. In addition, indatraline inhibits cell proliferation with an IC50 of 3 μM in HeLa cell and an IC50 of 0.5 μM in HUVEC cell, respectively. […] In addition, angiogenesis inhibitory effect of indatraline is tested as autophagy inducer and cell growth inhibitor. Indatraline of In vitro assay inhibits capillary formation, invasion and migration as angiogenesis indicators. […] Induction of autophagy may trigger signal inhibiting angiogenesis, or inhibition of neurotransmitter may simultaneously stimulate inhibitions of both of autophagy and angiogenesis.

[10] = test system: HUVEC; experiment: LC3 immunoblotting (LC3-I to LC3-II conversion) in HUVEC; type: cell-based; details: 24 hrs
Procedure: as §1
LC3 conversion was finally verified by immunoblotting. After indatraline treatment for 24 hrs, the conversion of LC3-I to LC3-II in cells was tested (FIG. 2A). Inductions of autophagy in both of HUVEC and HeLa cells were tested in concentration starting from 5 μM. In order to investigate signal pathway related to indatraline, well-known autophagy inhibitors 3-MA (10 mM), Bafilomycin A (100 nM), PD98059 (10 μM) and Wortmannin (100 nM) was treated with indatraline. The inhibitors were pre-treated for 1 hr before indatraline and treated with 5 μM or 10 μM of indatraline. […]

[11] = test system: HeLa cell; experiment: Cytotoxicity during autophagy screening in HeLa; type: cell-based, human; details: 5 μM, 24 hrs
Procedure: as §3

[12] = test system: melan-a cells; experiment: Measurement of amounts of melanin generated in melan-a; details: 5 μM, vs control group
Procedure: as §4, §5

[13] = test system: normal skin cell line melan-a; experiment: LC3 conversion in melan-a; type: cell-based
Procedure: It was verified whether indatraline is induced autophagy and involved in melanogenesis. The correlation of autophagy and melanogenesis has been studied as described above. Pigmentation disorders are generated by melanogenesis (chloasma, freckle, age spot, etc.), and abnormality of melanogenesis control can lead to melanoma (skin cancer). Therefore, melanogenesis control may be used to whitening and skin cancer treatment. […] As a result, it was determined that autophagy was induced. […] In melan-a cells, LC3 conversion was observed from 1 μM of concentration (FIG. 5A).

[14] = test system: HUVEC; experiment: Cell migration (wound) assay; type: cell-based; details: 5 μM and 10 μM, 9 hrs
Procedure: To measure cell migration, HUVEC cells were cultured up to 100% confluence in 12-well plates. Then, the well was wounded a straight scratch using a 200 μL pipette tip. Cells were treated with indatraline and cells migration was observed every 3 hrs. The wound at 9 hrs was recovered by almost 80%. The images were obtained using DP70 camera with 40× magnification.

[15] = test system: rat carotid artery; experiment: Inhibition of angiostenosis after balloon injury; type: in vivo; details: 7 days
Procedure: In order to verify effects for inhibiting angiostenosis by indatraline as autophagy-induced material in rat carotid artery, a balloon injury was created in the normal left rat carotid artery. After balloon injury, indatraline, rapamycin and DMSO (control group) were treated using catheter to observe angiostenosis. […] At 7 days after the injury, the carotid arteries were excised. Smooth muscle cells were stained with hematoxylin and eosin (H&E). Levels of angiostenosis were observed.
After balloon injury, indatraline, rapamycin and DMSO (control group) were treated using catheter to observe angiostenosis. […] The ratio between intima area and media area was compared by observing tissue stenosed.

[16] = test system: HeLa cells; experiment: Autophagy detection by MDC staining; details: 24 hrs
Description: as §6

[17] = test system: HeLa cells; experiment: Cell proliferation assay (MTT) in HeLa; type: cell-based; details: Homo sapiens, 72 h, 3 days
Procedure: as §2

[18] = test system: HUVEC; experiment: VEGF-induced chemoinvasion assay; type: cell-based
Procedure: In vitro HUVEC invasion was verified using Transwell chamber equipped 8.0-1 m size pore polycarbonate filter insert. Briefly, the lower layer surface of the filter was coated with gelatin (1 mg/mL), and the upper layer surface of the filter was coated with matrigel (3 mg/mL). HUVEC (7×10^4 cells) was placed in the upper layer of the filter, and the compound was added to the lower layer of the filter under the presence of VEGF (50 ng/ml). Then, the chamber was incubated at 37° C. for 18 hrs. The cells were fixed with 70% methanol and stained with hematoxylin and eosin. The lower layer of the filter was observed by microscope with 100× magnification to measure the cell invasion. The cell images were obtained using DP70 camera.

[19] = test system: B16-F10 cells; experiment: Cell growth (MTT) in B16-F10; details: B16-F10, 5 μM, vs control group
Procedure: as §4, §5

With CO/C1=C\C(C)=C\[C@@H](C)[C@@H](O)[C@@H](C)C/C(C)=C/C=C/[C@H](OC)[C@@H]([C@@H](C)[C@@H](O)[C@H](C)[C@@]2(O)C[C@@H](O)[C@H](C)[C@@H](C(C)C)O2)OC1=O [Bafilomycin A] the “effect of autophagy inhibitor on indatraline-induced conversion of LC3-I to LC3-II” value ([1]; indatraline 5 μM) was “inhibited” and the “effect of autophagy inhibitor on indatraline-induced conversion of LC3-I to LC3-II” value ([1]; indatraline 10 μM) was “inhibited”.
CN[C@@H]1C[C@@H](c2ccc(Cl)c(Cl)c2)c2ccccc21 [indatraline] was tested, and the LC3 conversion [2] was “strongly occurred”, the VEGF-induced capillary formation ([3]; 1 μM) was “inhibited the mature capillary formation” and the capillary formation ([3]; 4 hrs) was “weakly inhibited”. The IC50 [4] was 500 nM, the “EGFP-LC3 fluorescence in the cytoplasm” value [5] was “increased indatraline concentration-dependently” and the melanogenesis inhibited ([6]; 48 hrs) was “approximately 77%”. For the same molecule, the melanogenesis inhibited ([6]; 72 hrs) was “approximately 59%”, the cell growth inhibited ([7]; 24 hrs) was 62% and the “cell growth inhibited (maintained)” value ([7]; after 24 hrs (maintained)) was 56%. For the same molecule, the “autophagy induction (Lysotracker fluorescence) relative to control group” value ([8]; 1 μM, 24 hrs, HCS) was 2.87 times, the “autophagy induction in HCS” value ([8]; Lysotracker) was “induced autophagy similar to rapamycin” and the cytotoxicity [9] was “no cytotoxicity”. The “concentration from which LC3 conversion (autophagy induction) occurs” value [10] was at least 5 µM, the cytotoxicity [11] was “no cytotoxicity” and the melanogenesis inhibited ([12]; 48 hrs) was “approximately 89%”. The melanogenesis inhibited ([12]; 72 hrs) was “approximately 74%”, the “concentration from which LC3 conversion is observed” value [13] was at least 1 µM and the “migration of HUVEC” value [14] was “inhibited migration”. For the same molecule, the angiostenosis [15] was “significantly inhibited”, the “proliferation of smooth muscle cells” value [15] was “inhibited” and the “intima area (ratio between intima area and media area)” value ([15]; control approximately 80%) was “less than 60%”. The “smooth muscle cell growth reduced compared to control group” value ([15]; catheter treatment, intima/media ratio) was “approximately 20%”, the “concentration from which LC3 conversion (autophagy induction) occurs” value ([1]; HeLa, 24 hrs) was at least 5 µM and the MDC staining fluorescence [16] was “dose-dependent increase of fluorescence from 1 μM”. For the same molecule, the IC50 [17] was 3000 nM, the VEGF-induced invasion ([18]; 0.5 μM and 1 μM, 18 hrs) was “significantly decreased invasion cells” and the “concentration from which VEGF-induced invasion is effectively inhibited” value ([18]; FIG. 4B legend) was at least 5 µM. For the same molecule, the cell growth inhibited ([19]; 24 hrs) was 55% and the “cell growth inhibited (maintained)” value ([19]; after 24 hrs (maintained)) was 54%.
